The record followed here is publication PMC6503114, “Application of Antimicrobial Peptides of the Innate Immune System in Combination With Conventional Antibiotics—A Novel Way to Combat Antibiotic Resistance?” (Frontiers in Cellular and Infection Microbiology, 2019).

For test [1], the system named is S. aureus 1399/17. The test is described as follows: microbe, parasite or virus in culture. The class given is cell-based. The conditions noted are these: Staphylococcus aureus. The protocol: (§1) Prior to the “checkerboard” synergy test the minimal inhibitory concentrations (MIC) of individual substances were determined using broth microdilution assay. Testing was performed in 60-well polystyrene Terasaki microplates with V-shaped bottom generally according to the guidelines of the European Committee for Antimicrobial Susceptibility Testing with subtle modifications designed for AMP testing (Tossi et al., [1997]; Wiegand et al., [2008]). Cultivation of bacteria was carried out in 2.1% Müller-Hinton broth at 37°C with shaking. Two-fold serial dilutions of peptides, antibiotics and other antimicrobials were made with 10 mM sodium phosphate buffer, pH 7.4, containing 0.1% of BSA. The plates were preliminary incubated with 0.1% BSA for 1 h at 37°C to reduce a non-specific binding of peptides to the plates. After that BSA was removed, and serial dilutions were added into the plate wells in triplicates followed by the same volume of the suspension of bacterial cells in logarithmic phase of growth in concentration of 1 × 10^6 CFU/ml. After the 18 h overnight incubation at 37°C, the MIC value for each compound was determined as its lowest concentration completely inhibiting the visible growth of bacteria. The final results were calculated as median values based on 3–6 independent experiments.

Test [2] concerns K. pneumoniae ESBL 344/17. Description: microbe, parasite or virus in culture. The class given is cell-based. The note with it: Klebsiella pneumoniae, ESBL344/17; K. pneumoniae ESBL 344/17, drug-resistant clinical isolate. The method, then: as §1
Test [3] has as its system E. coli ESBL 521/17. Description: microbe, parasite or virus in culture. The test is classed as cell-based. The conditions noted are these: Escherichia coli, ESBL521/17; E. coli ESBL 521/17, drug-resistant clinical isolate; square brackets = twice the maximal tested concentration. The method, then: as §1
Test [4] relates to A. baumannii 7226/16. Description: microbe, parasite or virus in culture. The test is classed as cell-based. The conditions noted are these: Acinetobacter baumannii; A. baumannii 7226/16, drug-resistant clinical isolate. The protocol:
as §1

The test system of test [5] is P. aeruginosa MDR 522/17. Description: microbe, parasite or virus in culture. The test is classed as cell-based. The conditions noted are these: Pseudomonas aeruginosa, MDR522/17; P. aeruginosa MDR 522/17, drug-resistant clinical isolate. The protocol: as §1
Test [6] concerns K. pneumoniae ESBL 344/17. The test is described as follows: Checkerboard titration (FICI). The class given is cell-based, Klebsiella pneumoniae. The protocol:
(§2) The combined antimicrobial action of AMPs and other antimicrobial compounds was assessed using checkerboard titration approach under the conditions similar to that of the microdilution assay. According to checkerboard titration template, one component (A) of the combination was diluted along the rows of the plate, while the other (B) was diluted down the columns, thereby creating the variety of mixtures with different concentrations of tested compounds. 2.5 μl of corresponding solutions of the components A and B were added into each well of the plate. Into the first column and the last row the same amount of 10 mM sodium phosphate buffer, pH 7.4, containing 0.1% of BSA was introduced instead of the second component. Thus, all wells contained 5 μl of antimicrobial compounds solutions (solo or in combination). The same volume of bacterial suspension, prepared as described for microdilution assay, was added into each well. The results were recorded after the overnight incubation, visually indicating the presence or absence of the microbial growth in the corresponding wells. Based on the obtained data the isobolograms of combined action were plotted and/or Fractional Inhibitory Concentration Indices (FICI) were calculated. […] Depending on the minimal value of the FICI the combined effect of the combination was classified as antagonism (FICI > 2), independent action (1 < FICI ≤ 2), additivity (0.5 < FICI ≤ 1) or synergy (FICI ≤ 0.5), as is recommended in the literature and due to some drawbacks of the serial dilution method (Hsieh et al., [1993]; Orhan et al., [2005]; Fehri et al., [2007]). FICIs were assessed in 3–6 independent experiments and median values were used to define the nature of interaction.

The subject of test [7] is E. coli ESBL 521/17. The test is described as follows: Checkerboard titration (FICI). The class given is cell-based, Escherichia coli. The method, then:
as §2

Test [8] concerns A. baumannii 7226/16. The test is described as follows: Checkerboard titration (FICI). The class given is cell-based, Acinetobacter baumannii. The protocol:
as §2

The test system of test [9] is P. aeruginosa MDR 522/17. The test is described as follows: Checkerboard titration (FICI). The class given is cell-based, Pseudomonas aeruginosa. The protocol: as §2
For test [10], the system named is S. aureus 1399/17. The test is described as follows: Checkerboard titration (FICI). The test is classed as cell-based, Staphylococcus aureus. The protocol:
as §2

A further test concerns bacteria. The test is described as follows: Checkerboard titration, synergy cases with conventional antibiotics (all tested bacteria). The class given is cell-based. The note with it: in vitro, human AMPs. The protocol:
as §2, with “According” for “The combined antimicrobial action of AMPs and other antimicrobial compounds was assessed using checkerboard titration approach under the conditions similar to that of the microdilution assay. According”

For another test, the system named is MRSA ATCC 33591. The test is described as follows: microbe, parasite or virus in culture. The test is classed as cell-based, Staphylococcus aureus. The conditions noted are these: median of 3–6 experiments, square brackets = twice the maximal tested concentration.
Where [11] appears, read: S. aureus 1399/17, drug-resistant clinical isolate, read-out: MIC.
[12] abbreviates: antibiotic in combination with ChBac3.4.
Setting [13] is: antibiotic in combination with PG-1.

Like-named read-outs stand apart in the source and are kept apart here. Marks after values point to notes of the source that are not given here. Bridges are numbered along the chain shown (N, C = ends). Where no end group is shown, it is not given here.

As to `CC[C@H]1OC(=O)[C@H](C)[C@@H](O[C@H]2C[C@@](C)(OC)[C@@H](O)[C@H](C)O2)[C@H](C)[C@@H](O[C@@H]2O[C@H](C)C[C@H](N(C)C)[C@H]2O)[C@](C)(O)C[C@@H](C)C(=O)[C@H](C)[C@@H](O)[C@]1(C)O` [Erythromycin], the MIC in the test on S. aureus 1399/17 [1] (setting [11]) was greater than 50 µM; in test [2], 50 µM; in the test on E. coli ESBL 521/17 [3], greater than 50 µM; in the test with A. baumannii 7226/16 [4] it was greater than 50 µM; in the test with P. aeruginosa MDR 522/17 [5], greater than 50 µM. For the same compound, the “Minimal FICI” value in test [6] (setting [12]) is listed as 0.25^*; in [6] (setting [13]) it was 0.25^*; in the test with E. coli ESBL 521/17 [7] (setting [12]), 0.38^*; in the test with E. coli ESBL 521/17 [7] (setting [13]), 0.62; with A. baumannii 7226/16 [8] (setting [12]), 0.75; in the test with A. baumannii 7226/16 [8] (setting [13]), 1.12. Besides, the “Minimal FICI” value in the test on P. aeruginosa MDR 522/17 [9] (setting [12]) is 0.38^*; in the test on P. aeruginosa MDR 522/17 [9] (setting [13]) it was 0.5^*; in the test on S. aureus 1399/17 [10] (setting [12]), 0.5^*; in the test with S. aureus 1399/17 [10] (setting [13]) it was 0.75.
In the case of “GIGDPVTCLKSGAICHPVFCPRRYKQIGTCGLPGTKCCKKP (disulfide 8-37, 15-30, 20-38 (inferred)) [hBD-2]”, the “AMP concentration in synergy cases with conventional antibiotics” value in the test on bacteria was 0.2 to 1.6 µM. Besides, the MIC against MRSA ATCC 33591 is >100 [200] μM.
As for “GIINTLQKYYCRVRGGRCAVLSCLPKEEQIGKCSTRGRKCCRRKK (disulfide 11-40, 18-33, 23-41 (inferred)) [hBD-3]”, the “AMP concentration in synergy cases with conventional antibiotics” value in the test with bacteria lay within 0.08 to 3.75 µM.
For `NCC[C@H](O)C(=O)N[C@@H]1C[C@H](N)[C@@H](O[C@H]2O[C@H](CN)[C@@H](O)[C@H](O)[C@H]2O)[C@H](O)[C@H]1O[C@H]1O[C@H](CO)[C@@H](O)[C@H](N)[C@H]1O` [Amikacin], the MIC with S. aureus 1399/17 [1] (setting [11]) is greater than 50 µM; in test [2] it was 0.25 µM; with E. coli ESBL 521/17 [3] it was 1 µM; in the test on A. baumannii 7226/16 [4], 6.25 µM; in the test with P. aeruginosa MDR 522/17 [5] it was 1 µM. For the same compound, the “Minimal FICI” value in [6] (setting [12]) is reported as 0.38; in [6] (setting [13]), 0.31; in the test with E. coli ESBL 521/17 [7] (setting [12]), 0.62; in the test with E. coli ESBL 521/17 [7] (setting [13]) it was 0.38; in the test on A. baumannii 7226/16 [8] (setting [12]), 0.5^*; in the test with A. baumannii 7226/16 [8] (setting [13]), 0.38^*. Besides, the “Minimal FICI” value in the test with P. aeruginosa MDR 522/17 [9] (setting [12]) is reported as 0.5; in the test with P. aeruginosa MDR 522/17 [9] (setting [13]), 0.5; with S. aureus 1399/17 [10] (setting [12]), 0.125^*; in the test with S. aureus 1399/17 [10] (setting [13]), 1.0.
Regarding `C[C@@H](O)[C@H]1C(=O)N2C(C(=O)O)=C(S[C@@H]3CN[C@H](C(=O)N(C)C)C3)[C@H](C)[C@H]12` [Meropenem], the MIC in the test on S. aureus 1399/17 [1] (1399/17) was 6.25 µM; in [2] it was 0.04 µM; with E. coli ESBL 521/17 [3], 0.04 µM; in the test with A. baumannii 7226/16 [4] it was greater than 50 µM; with P. aeruginosa MDR 522/17 [5] it was 25 µM. Also, the “Minimal FICI” value in [6] (setting [12]) is on record as 1.0; in [6] (setting [13]), 1.0; in the test with E. coli ESBL 521/17 [7] (setting [12]), 1.0; with E. coli ESBL 521/17 [7] (setting [13]) it was 1.0; in the test with A. baumannii 7226/16 [8] (setting [12]) it was 0.5^*; with A. baumannii 7226/16 [8] (setting [13]), 0.38^*. The “Minimal FICI” value with P. aeruginosa MDR 522/17 [9] (setting [12]) is listed as 0.62; in the test on P. aeruginosa MDR 522/17 [9] (setting [13]), 1.0; in the test on S. aureus 1399/17 [10] (setting [12]), 0.31^*; with S. aureus 1399/17 [10] (setting [13]), 0.25^*.
